Structures can show the parent of a compound that is named as a salt. Where two headings read alike, the source gives them in different places.
Biological target: T1, Full-length (FL)-PRMT5-MEP50 enzyme complex (Homo sapiens, UniProt O14744)
T1 construct: Full-length (FL)-PRMT5-MEP50 enzyme complex (recombinant proteins from baculovirus-transfected Sf21 cells: FL-PRMT5; MW=73837 kDa and FL-MEP50; MW=38614); made in house; host or cells: baculovirus-transfected Sf21 insect cells
Experiment: PRMT5-MEP50 Enzyme Methylation Assay
Format: biochemical
Settings: 1.0 nM PRMT5-MEP50, 75 nM biotinylated peptide, 15 μM SAM
Method: PRMT5-MEP50 biochemical assay is a direct measurement of the methylation activity of the enzyme complex on a short peptide substrate derived from the N-terminus of H4 histone. Methylation experiment is performed with recombinant PRMT5-MEP50 protein complex. The assessment of inhibitory effect of small molecules is measured by the effectiveness of the compounds to inhibit this reaction (EC50).
In this assay, the potency (EC50) of each compound was determined from a twenty-point (1:2 serial dilution; top compound concentration of 100000 nM) titration curve using the following outlined procedure. To each well of a white ProxiPlus 384 well-plate, 100 nL of compound (1% DMSO in final assay volume of 10 μL) was dispensed, followed by the addition of 8 μL of 1× assay buffer (50 mM Bicine pH 8.0, 1 mM DTT, 0.004% Tween20, 0.01% BSA) containing 1.25 nM of Full-length (FL)-PRMT5-MEP50 enzyme complex (recombinant proteins from baculovirus-transfected Sf21 cells: FL-PRMT5; MW=[…] and FL-MEP50; MW=38614) and 1 μL of 150 μM S-(5′-Adenosyl)-L-Methionine Chloride (SAM). Plates were sealed and placed in a 37° C. humidified chamber for a 60 minutes pre-incubation with compound. Subsequently, each reaction was initiated by the addition of 1 μL 1× assay buffer containing 750 nM biotinylated H4R3(Mel) peptide. The final reaction in each well of 10 μL consists of 1.0 nM PRMT5-MEP50, 75 nM biotinylated-peptide, and 15 μM SAM. Methylation reactions proceeded for 150 minutes in a sealed plate at 37° C. Reactions were immediately quenched by the addition of 1 μL of 5% formic acid. Plates were then frozen and shipped to SAMDI™ Tech Inc. to determine the percent conversion from H4R3(Mel) to H4R3(Me2). Dose-response curves were generated by plotting percent effect (% product conversion; Y-axis) vs. Log 10 compound concentrations (X-axis). EC50 values were determined by non-linear regression according to models for either sigmoidal (4 parameters) or biphasic (7 parameters) dose-response curves.

[1] = one EC50: 4 parameters single site sigmoidal model, EC50 1: first value of 7 parameters biphasic model, read-out: Enzyme Methylation Assay (EC50 or EC50 1)
[2] = second EC50 of 7 parameters biphasic model, read-out: Enzyme Methylation Assay (EC50 2)

T1 sequence (O14744 whole entry): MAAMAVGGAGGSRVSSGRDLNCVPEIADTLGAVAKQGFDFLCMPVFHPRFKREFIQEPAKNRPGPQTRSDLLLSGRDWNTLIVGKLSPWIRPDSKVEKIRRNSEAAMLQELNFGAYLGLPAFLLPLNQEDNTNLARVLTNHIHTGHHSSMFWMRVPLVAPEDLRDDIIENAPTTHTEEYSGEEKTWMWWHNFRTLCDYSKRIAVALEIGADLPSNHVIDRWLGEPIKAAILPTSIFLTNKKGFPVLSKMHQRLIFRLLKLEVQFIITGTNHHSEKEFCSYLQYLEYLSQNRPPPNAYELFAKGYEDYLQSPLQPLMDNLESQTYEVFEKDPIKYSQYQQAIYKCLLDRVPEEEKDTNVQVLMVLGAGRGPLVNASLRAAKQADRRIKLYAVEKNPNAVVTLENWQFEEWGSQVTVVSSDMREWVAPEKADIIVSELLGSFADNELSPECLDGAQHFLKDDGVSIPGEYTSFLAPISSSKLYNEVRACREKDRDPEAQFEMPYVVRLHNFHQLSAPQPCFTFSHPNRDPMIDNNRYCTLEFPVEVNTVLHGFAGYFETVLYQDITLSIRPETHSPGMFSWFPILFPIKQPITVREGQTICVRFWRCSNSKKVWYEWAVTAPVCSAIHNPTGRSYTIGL
T1 sequence (Q9BQA1 whole entry partner): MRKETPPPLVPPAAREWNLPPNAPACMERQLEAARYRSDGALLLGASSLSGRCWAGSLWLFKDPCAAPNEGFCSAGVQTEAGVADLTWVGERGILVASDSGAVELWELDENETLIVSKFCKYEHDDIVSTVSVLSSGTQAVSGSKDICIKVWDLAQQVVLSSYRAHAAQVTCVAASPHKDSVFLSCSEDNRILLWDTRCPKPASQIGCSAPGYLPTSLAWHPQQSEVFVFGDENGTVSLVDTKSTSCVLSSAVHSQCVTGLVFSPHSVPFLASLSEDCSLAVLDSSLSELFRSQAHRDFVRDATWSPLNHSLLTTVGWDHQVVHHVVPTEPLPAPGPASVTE

SMILES	EC50 [1] [nM]	EC50 [2] [nM]
Cc1cn([C@@H]2C[C@@H]3[C@H](Cc4ccc5cc(Br)c(N)nc5c4)CC[C@]3(O)[C@H]2O)c2ncnc(N)c12 [Example 40, (1S,2R,3aR,4S,6aR)-4-((2-amino-3-bromoquinolin-7-yl)methyl)-2-(4-amino-5-methyl-7H-pyrrolo[2,3-d]pyrimidin-7-yl)hexahydropentalene-1,6a(1H)-diol]	0.4	–
Nc1nc2c(F)c(C[C@@H]3CC[C@@]4(O)[C@@H]3O[C@@H](n3ccc5c(N)ncnc53)[C@@H]4O)ccc2cc1Cl [Example 26, (2R,3R,3aS,6S,6aR)-6-((2-amino-3-chloro-8-fluoroquinolin-7-yl)methyl)-2-(4-amino-7H-pyrrolo[2,3-d]pyrimidin-7-yl)hexahydro-3aH-cyclopenta[b]furan-3,3a-diol]	1.1	–
CNc1ncnc2c1ccn2[C@@H]1C[C@@H]2[C@H](Cc3ccc4cc(Br)c(N)nc4c3)CC[C@]2(O)[C@H]1O [Example 97, (1S,2R,3aR,4S,6aR)-4-((2-amino-3-bromoquinolin-7-yl)methyl)-2-(4-(methylamino)-7H-pyrrolo[2,3-d]pyrimidin-7-yl)hexahydropentalene-1,6a(1H)-diol]	0.4	–
Nc1nc2cc(C[C@@H]3CC[C@@]4(O)[C@@H]3O[C@@H](n3cc(C(F)F)c5c(N)ncnc53)[C@@H]4O)ccc2cc1F [Example 51, (2R,3R,3aS,6S,6aR)-2-[4-amino-5-(difluoromethyl)-7H-pyrrolo[2,3-d]pyrimidin-7-yl]-6-[(2-amino-3-fluoroquinolin-7-yl)methyl]hexahydro-3aH-cyclopenta[b]furan-3,3a-diol]	1.2	–
Nc1nc2cc(C[C@H]3[C@H]4O[C@@H](n5ccc6c(N)ncnc65)[C@H](O)[C@@]4(O)CC3(F)F)ccc2cc1F [Example 53, (2R,3R,3aS,6S,6aR)-6-[(2-amino-3-fluoroquinolin-7-yl)methyl]-2-(4-amino-7H-pyrrolo[2,3-d]pyrimidin-7-yl)-5,5-difluorohexahydro-3aH-cyclopenta[b]furan-3,3a-diol]	0.3	–
C[C@]1(COc2ccc3ccc(N)nc3c2)C[C@@H](n2ccc3c(N)ncnc32)[C@H](O)[C@@H]1O [Example 101, (1S,2R,3R,5R)-5-(4-amino-7H-pyrrolo[2,3-d]pyrimidin-7-yl)-3-(((2-aminoquinolin-7-yl)oxy)methyl)-3-methylcyclopentane-1,2-diol]	0.3	–
C[C@]1(CCc2ccc3cc(Br)c(N)nc3c2)C[C@@H](n2ccc3c(N)ncnc32)[C@H](O)[C@]1(C)O [Example 117, (1R,2S,3R,5S)-5-(2-(2-amino-3-bromoquinolin-7-yl)ethyl)-3-(4-amino-7H-pyrrolo[2,3-d]pyrimidin-7-yl)-1,5-dimethylcyclopentane-1,2-diol]	1	–
Nc1nc2cc(C[C@H]3[C@H]4O[C@@H](n5cc(F)c6c(N)ncnc65)[C@H](O)[C@@]4(O)C[C@@H]3F)ccc2cc1F [Example 55, (2R,3R,3aS,5S,6S,6aR)-2-(4-amino-5-fluoro-7H-pyrrolo[2,3-d]pyrimidin-7-yl)-6-[(2-amino-3-fluoroquinolin-7-yl)methyl]-5-fluorohexahydro-3aH-cyclopenta[b]furan-3,3a-diol, 2,2,2-trifluoroethanol]	0.5	191
Cc1ncnc2c1ccn2[C@@H]1O[C@@H]2[C@H](Cc3ccc4cc(F)c(N)nc4c3)CC[C@]2(O)[C@H]1O [Example 123, (2R,3R,3aS,6S,6aR)-6-((2-amino-3-fluoroquinolin-7-yl)methyl)-2-(4-methyl-7H-pyrrolo[2,3-d]pyrimidin-7-yl)hexahydro-3aH-cyclopenta[b]furan-3,3a-diol]	1	–
C[C@@]1(O)[C@@H](COc2ccc3ccc(N)nc3c2)C[C@@H](n2ccc3cncnc32)[C@@H]1O [Example 105, (1R,2S,3R,5R)-5-(((2-aminoquinolin-7-yl)oxy)methyl)-1-methyl-3-(7H-pyrrolo[2,3-d]pyrimidin-7-yl)cyclopentane-1,2-diol]	0.3	21.9
C[C@@]1(O)[C@@H](COc2ccc3cc(Br)c(N)nc3c2)O[C@@H](n2ccc3c(N)ncnc32)[C@@H]1O [Example 10, (2R,3S,4R,5R)-2-(((2-amino-3-bromoquinolin-7-yl)oxy)methyl)-5-(4-amino-7H-pyrrolo[2,3-d]pyrimidin-7-yl)-3-methyltetrahydrofuran-3,4-diol]	0.5	22
Cc1nc(C)c2ccn([C@@H]3O[C@@H]4[C@H](Cc5ccc6cc(Cl)c(N)nc6c5)CC[C@]4(O)[C@H]3O)c2n1 [Example 91, (2R,3R,3aS,6S,6aR)-6-((2-amino-3-chloroquinolin-7-yl)methyl)-2-(2,4-dimethyl-7H-pyrrolo[2,3-d]pyrimidin-7-yl)hexahydro-3aH-cyclopenta[b]furan-3,3a-diol]	0.4	–
Cc1ncnc2c1ccn2[C@@H]1O[C@@H]2[C@@H](Oc3ccc4cc(C(F)F)c(N)nc4c3)CC[C@]2(O)[C@H]1O [Example 115, (2R,3R,3aS,6S,6aR)-6-((2-amino-3-(difluoromethyl)quinolin-7-yl)oxy)-2-(4-methyl-7H-pyrrolo[2,3-d]pyrimidin-7-yl)hexahydro-3aH-cyclopenta[b]furan-3,3a-diol]	0.4	255
C[C@]1(CCc2ccc3cc4c(nc3c2)NCC4)C[C@@H](n2ccc3c(N)ncnc32)[C@H](O)[C@@H]1O [Example 126, (1S,2R,3S,5R)-5-(4-amino-7H-pyrrolo[2,3-d]pyrimidin-7-yl)-3-(2-(2,3-dihydro-1H-pyrrolo[2,3-b]quinolin-7-yl)ethyl)-3-methylcyclopentane-1,2-diol]	0.6	–
Nc1nc2cc(C[C@@H]3CC[C@@]4(O)[C@@H]3C[C@@H](n3cc(F)c5c(N)ncnc53)[C@@H]4O)cc(F)c2cc1F [Example 30, (1S,2R,3aR,4S,6aR)-4-((2-amino-3,5-difluoroquinolin-7-yl)methyl)-2-(4-amino-5-fluoro-7H-pyrrolo[2,3-d]pyrimidin-7-yl)hexahydropentalene-1,6a(1H)-diol]	0.7	–
Nc1nc2cc(O[C@H]3CC[C@@]4(O)[C@@H]3C[C@@H](n3ccc5c(N)ncnc53)[C@@H]4O)ccc2cc1Br [Example 119, (1S,2R,3aR,4S,6aR)-4-((2-amino-3-bromoquinolin-7-yl)oxy)-2-(4-amino-7H-pyrrolo[2,3-d]pyrimidin-7-yl)hexahydropentalene-1,6a(1H)-diol 2,2,2-trifluoroacetate]	1	116
Cc1nc(N)c2c(F)cn([C@@H]3O[C@@H]4[C@H](Cc5ccc6cc(F)c(N)nc6c5)CC[C@]4(O)[C@H]3O)c2n1 [Example 44, (2R,3R,3aS,6S,6aR)-6-((2-amino-3-fluoroquinolin-7-yl)methyl)-2-(4-amino-5-fluoro-2-methyl-7H-pyrrolo[2,3-d]pyrimidin-7-yl)hexahydro-3aH-cyclopenta[b]furan-3,3a-diol 2,2,2-trifluoroacetate]	0.4	–
Cc1cn([C@@H]2C[C@@H]3[C@H](Cc4cc(F)c5cc(Cl)c(N)nc5c4)CC[C@]3(O)[C@H]2O)c2ncnc(N)c12 [Example 36, (1S,2R,3aR,4S,6aR)-4-[(2-amino-3-chloro-5-fluoroquinolin-7-yl)methyl]-2-(4-amino-5-methyl-7H-pyrrolo[2,3-d]pyrimidin-7-yl)hexahydropentalene-1,6a(1H)-diol]	0.5	–
Nc1nc2cc(O[C@H]3CC[C@@]4(O)[C@@H]3O[C@@H](n3cc(F)c5c(N)ncnc53)[C@@H]4O)ccc2cc1Cl [Example 74, (2R,3R,3aS,6S,6aR)-6-((2-amino-3-chloroquinolin-7-yl)oxy)-2-(4-amino-5-fluoro-7H-pyrrolo[2,3-d]pyrimidin-7-yl)hexahydro-3aH-cyclopenta[b]furan-3,3a-diol]	0.3	–
CNc1ncnc2c1ccn2[C@@H]1O[C@@H]2[C@@H](Oc3ccc4cc(Br)c(N)nc4c3)CC[C@]2(O)[C@H]1O [Example 94, (2R,3R,3aS,6S,6aR)-6-((2-amino-3-bromoquinolin-7-yl)oxy)-2-(4-(methylamino)-7H-pyrrolo[2,3-d]pyrimidin-7-yl)hexahydro-3aH-cyclopenta[b]furan-3,3a-diol]	0.8	–
Nc1nc2nc(C[C@@H]3CC[C@@]4(O)[C@@H]3O[C@@H](n3ccc5c(N)ncnc53)[C@@H]4O)ccc2cc1Cl [Example 28, (2R,3R,3aS,6S,6aR)-6-((7-amino-6-chloro-1,8-naphthyridin-2-yl)methyl)-2-(4-amino-7H-pyrrolo[2,3-d]pyrimidin-7-yl)hexahydro-3aH-cyclopenta[b]furan-3,3a-diol trihydrochloride]	0.8	–

Source: US20230062119A1, “USE OF BIOMARKERS IN IDENTIFYING PATIENTS THAT WILL BE RESPONSIVE TO TREATMENT WITH A PRMT5 INHIBITOR” (Merck Sharp & Dohme LLC, priority 2019, published 2023)
